Assay results: PMC9077470 (RSC Advances, 2018)

Key:
[1] = Partition coefficients in n-octanol/phosphate buffer (pH 7.4); format: physicochemical; settings: means ± SD, n = 3
Procedure: The phosphate buffer and octanol were mutually saturated at 20–22 °C before use. Samples were dissolved in the aqueous phase and the n-octanol/phosphate buffer mixtures were shaken for 24 h to reach a distribution equilibrium. The volumes of each phase were chosen so that the solute concentration in the aqueous phase, before and after distribution, could readily be measured using HPLC method. The partition coefficients (P) were calculated from the following equation: [drawing 1] where Ci and Cw represent the solute concentrations in the aqueous buffer phase before and after distribution, respectively, Vw represents the volume of the aqueous phase, and Vo is the volume of the octanol phase.[16]

[2] = In vitro incubation with stomach contents of rats; format: in vitro ADME; settings: rat stomach contents homogenate, pH 1.2, 37 °C, after 2 h of incubation
Procedure: (§1) After anesthetized with diethyl ether, rats were sacrificed and their contents of stomach and small intestine were collected and homogenized respectively, the homogenate was diluted with buffer solution (pH 1.2 for stomach contents, pH 6.8 for small intestine contents) to 20% (w/v). […] After 0.25, 0.5, 1.0, 1.5, 2.0, 3.0 and 4.0 h of incubation, 200 μL of samples were collected and replaced with the same volume of blank homogenate, then samples were centrifuged at 13 000 rpm for 5 min, filtered with membrane filter, and analyzed by HPLC. The residual contents of each prodrug in homogenate were calculated and the hydrolysis curves were drawn.

[3] = In vitro incubation with small intestine contents of rats; format: in vitro ADME; settings: rat small intestine contents homogenate, pH 6.8, 37 °C, after 4 h of incubation
Procedure: as §1

[4] = In vivo incubation in the colon of rats; settings: injected into tied rat colon, 6 h
Procedure: 6 hours later, rats were sacrificed and their colon contents were separated and homogenized in 40 mL of phosphate buffer (pH 7.4). The homogenate was sonicated for 5 min and centrifuged at 13 000 rpm for 5 min, then 0.2 mL of the supernatant was collected and mixed with 0.8 mL of methanol. Finally, samples were centrifuged, filtered and analyzed by HPLC. The residual contents of each prodrug in colon contents were calculated, and the hydrolysis ratio was calculated by the following equation: [drawing 2] where Wr is the residual amount of prodrugs in the colon contents and Wi is the initial amount of prodrugs that administered to rats.

[5] = system: TNBS-induced experimental colitis; experiment: TNBS-induced colitis: disease activity index (DAI); format: in vivo, mice; settings: for DAI, compared with positive control: vs positive control (5-ASA + sodium butyrate)
Procedure: Colitis was induced according to the previous study.[18,19] Briefly, after 12 h of fasting, mice were anesthetized with intraperitoneal pentobarbital sodium (35 mg kg^-1) before the induction of colitis. 0.1 mL of 50% (v/v) ethanol contained 2.5% (v/v) TNBS was instilled into the colon 3.5-4 cm from the anus by a gavage needle. The mice were kept in a head-down position for 30 s to prevent leakage of the intracolonic instillation. Mice in the control group received normal saline instead of TNBS solution, a physical mixture of 5-ASA and sodium butyrate was used as the positive control. […] The treatments were given once daily for 5 continuous days starting 24 hours after the induction of colitis. DAI is ranged from 0 to 4 and it is the sum of scores given for body weight loss, stool consistency and presence or absence of fecal blood. The fecal occult blood of mice was evaluated by the ο-tolidine method.[22] A small amount of feces samples were smeared on a white plate. 2-3 drops of ο-tolidine solution (10 g L^-1, dissolved in acetic acid) were added into samples and mixed evenly. Then 2-3 drops of 3% H2O2 solution were added into the mixture, meanwhile, start the time and observe immediately. Scored as: normal, weak positive, green to light green developing over 2 min; +, positive, greenish-blue to deep green developing within 1 min; ++, positive, blue to bluish-green developing within 5-20 s; +++, very strong positive, intense blue color developing immediately.[23]

[6] = system: MPO activity in colonic tissues; experiment: TNBS-induced colitis: MPO activity in colonic tissues; format: in vivo, mice; settings: for MPO activity in colonic tissues: vs TNBS group, p < 0.01; for MPO activity, compared with positive control: vs positive control
Procedure: Colitis was induced according to the previous study.[18,19] Briefly, after 12 h of fasting, mice were anesthetized with intraperitoneal pentobarbital sodium (35 mg kg^-1) before the induction of colitis. 0.1 mL of 50% (v/v) ethanol contained 2.5% (v/v) TNBS was instilled into the colon 3.5-4 cm from the anus by a gavage needle. The mice were kept in a head-down position for 30 s to prevent leakage of the intracolonic instillation. Mice in the control group received normal saline instead of TNBS solution, a physical mixture of 5-ASA and sodium butyrate was used as the positive control. […] The treatments were given once daily for 5 continuous days starting 24 hours after the induction of colitis. […] Samples were freeze-thawed three times, after which sonication was repeated. Homogenates were then centrifuged at 13 000 rpm for 30 min and MPO was extracted from the resulting supernatant.[25] MPO activity was measured by the assay kit according to its provider's instructions.

[7] = system: SOD, MDA, GSH, GSH-Px in colonic tissues; experiment: TNBS-induced colitis: levels of SOD, MDA, GSH and GSH-Px in colonic tissues; format: in vivo, mice; settings: for GSH-Px activities in the colon / MDA levels in the colon / SOD activities in the colon / levels of GSH in the colon: vs TNBS group; for GSH-Px activities in the colon / MDA levels in the colon / SOD activities in the colon / levels of GSH in the colon / effect on decreasing the MDA level, compared with positive control: p < 0.01; for effect on increasing GSH, compared with positive control / effect on increasing GSH-Px, compared with positive control / effect on increasing SOD, compared with positive control / effect on decreasing the MDA level, compared with positive control: vs positive control
Procedure: Colitis was induced according to the previous study.[18,19] Briefly, after 12 h of fasting, mice were anesthetized with intraperitoneal pentobarbital sodium (35 mg kg^-1) before the induction of colitis. 0.1 mL of 50% (v/v) ethanol contained 2.5% (v/v) TNBS was instilled into the colon 3.5-4 cm from the anus by a gavage needle. The mice were kept in a head-down position for 30 s to prevent leakage of the intracolonic instillation. Mice in the control group received normal saline instead of TNBS solution, a physical mixture of 5-ASA and sodium butyrate was used as the positive control. […] The treatments were given once daily for 5 continuous days starting 24 hours after the induction of colitis. Colon tissue samples were homogenized with normal saline, the homogenate (10%, w/w) was centrifuged at 13 000 rpm for 15 min, and the resulting supernatant was diluted to 1% (w/w) for further assay. The protein levels of the colon homogenate were detected by a BCA protein assay kit. Then the activities of SOD and GSH-Px, and the levels of MDA and GSH of samples in each group were measured by the assay kits according to the provider's instructions.

SMILES | P (partition coefficient) [1] | logP at 24 h [1] | residual content of prodrug in stomach contents [2] | residual content of prodrug in small intestine contents [3] | hydrolysis ratio after in vivo incubation in rat colons [4] | DAI, compared with positive control [5] | MPO activity in colonic tissues [6] | MPO activity, compared with positive control [6] | GSH-Px activities in the colon [7] | MDA levels in the colon [7] | SOD activities in the colon [7] | levels of GSH in the colon [7] | effect on increasing GSH, compared with positive control [7] | effect on increasing GSH-Px, compared with positive control [7] | effect on increasing SOD, compared with positive control [7] | effect on decreasing the MDA level, compared with positive control [7] | DAI ([5]; TNBS colitis mice, once daily 5 days, equivalent to 100 mg kg^−1 5-ASA, course after treatment)
CCCC(=O)OCC(COC(=O)CCC)OC(=O)c1cc(N)ccc1O [5-ASDB, 2-(1,3-dibutyroxypropyl)-5-aminosalicylate] | 3.81 ± 0.35 | 0.58 ± 0.04 | 63.3% | 94.7% | almost hydrolyzed completely | better effects than the positive control | significantly decreased | significantly better than the positive control | increased | significantly decreased | increased | significantly higher | significantly greater effects | significantly greater effects | significantly greater effects | significantly greater effects | –
CCCC(=O)OCC(COC(=O)CCC)OC(=O)c1cc(N=Nc2ccc(O)c(C(=O)OC(COC(=O)CCC)COC(=O)CCC)c2)ccc1O [Ols-DBP] | 2.94 ± 0.37 | 0.47 ± 0.06 | 57.5% | 90.4% | almost hydrolyzed completely | better effects than the positive control | significantly decreased | significantly better than the positive control | increased | significantly decreased | increased | significantly higher | significantly greater effects | significantly greater effects | significantly greater effects | significantly greater effects | –
CCCC(=O)Oc1ccc(N=Nc2ccc(OC(=O)CCC)c(C(=O)O)c2)cc1C(=O)O [Ols-DB, 3,3′-azobis(6-hydroxybenzoicacid)dibutyrate] | 2.10 ± 0.24 | 0.32 ± 0.05 | almost completely decomposed | 5.5% | almost hydrolyzed completely | better effects than the positive control | significantly decreased | significantly better than the positive control | increased | significantly decreased | increased | significantly higher | – | – | – | – | most significant effects in the first 4 days
